Source: patent US20230136600A1, “Method and device for screening antigen epitope polypeptide” (priority 2020, published 2023)

Legend:
[1] = tested on: Balb/c mice; assay: Polypeptide chip-based vaccine immunogenicity scoring system; type: in vivo; design: key to A2: whether the 95 percentile of the last sampling is increased compared with the end point: Y = rise; N = no rise
[2] = tested on: novel coronavirus (live coronavirus), vero cells; assay: In-vitro live virus neutralization experiment with serum of immunized mice (CPE method); type: in vivo, SARS-CoV-2; settings: Embodiment I: single peptide 100 μg + MF59 at Day 0, 14, 28, Balb/c mice, serum Day 35
[3] = Embodiment III, polypeptide-KLH
[4] = Embodiment III, polypeptide-KLH, Mix1-10
[5] = Embodiment III, polypeptide-KLH, total score = 5
[6] = Embodiment III, polypeptide-KLH, value of the whole mix
[7] = adjuvant AddaVax, 7 peptides co-immunized in mice
[8] = adjuvant Adju-Phos, 7 peptides co-immunized in mice
[9] = adjuvant Alhydrogel, 7 peptides co-immunized in mice
[10] = adjuvant Imjet Alumn, 7 peptides co-immunized in mice
[11] = adjuvant MA103A, 7 peptides co-immunized in mice
[12] = adjuvant MA103B, 7 peptides co-immunized in mice

KLDDKDPNFK (SARS-CoV-2) [SEQ ID NO:20]
B1: D 0-D 14 95 percentile rise in the number of mice [1, 3]: 3 | B2: D 0-D 21 95 percentile rise in the number of mice [1, 3]: 3 | B3: D 14-D 21 95 percentile rise in the number of mice [1, 3]: 1 | B4: D 21-D 28 95 percentile rise in the number of mice [1, 3]: 1 | A1: difference between a highest median and a D 0 median (95 percentile) [1, 4]: 0.08 | A2: whether the 95 percentile of the last sampling is increased compared with the end point [1, 4]: Y | Total single peptide ([1]; Embodiment III, polypeptide-KLH, A*3 + B*2 + C*1): 14.8 | A: 95 percentile grouping number score [1, 5]: 3.5 | B: Mouse performance score [1, 5]: 1.9 | C1: #A timing-sequence response peptide fragment set [1, 6]: 511 | C2: #B vaccine specificity peptide fragment set [1, 6]: 364 | C3: Intersection of A and B [1, 6]: 1 | C4: Percentage of the intersection in set B [1, 6]: 0.275 | C: Timing-sequence response and specificity score [1, 6]: 0.5 | 1) 95 percentile grouping number A [1, 7]: 0 | 1) 95 percentile grouping number A1 [1, 7]: 0 | 2) Mouse performance B [1, 7]: 1.5 | 2) Mouse performance B1 [1, 7]: 1 | 2) Mouse performance B2 [1, 7]: 0 | 2) Mouse performance B3 [1, 7]: 3 | 3) Timing-sequence response and specificity C [1, 7]: 0 | 3) Timing-sequence response and specificity C1 [1, 7]: 237 | 3) Timing-sequence response and specificity C2 [1, 7]: 1244 | 3) Timing-sequence response and specificity C3 [1, 7]: 0 | 3) Timing-sequence response and specificity C4 [1, 7]: 0.000 | Total single peptide [1, 7]: 3 | 1) 95 percentile grouping number A [1, 8]: 1.5 | 1) 95 percentile grouping number A1 [1, 8]: 0.025 | 2) Mouse performance B [1, 8]: 1.4 | 2) Mouse performance B1 [1, 8]: 2 | 2) Mouse performance B2 [1, 8]: 2 | 2) Mouse performance B3 [1, 8]: 1 | 3) Timing-sequence response and specificity C [1, 8]: 0 | 3) Timing-sequence response and specificity C1 [1, 8]: 203 | 3) Timing-sequence response and specificity C2 [1, 8]: 1244 | 3) Timing-sequence response and specificity C3 [1, 8]: 0 | 3) Timing-sequence response and specificity C4 [1, 8]: 0.000 | Total single peptide [1, 8]: 7.3 | 1) 95 percentile grouping number A [1, 9]: 0 | 1) 95 percentile grouping number A1 [1, 9]: 0 | 2) Mouse performance B [1, 9]: 1.6 | 2) Mouse performance B1 [1, 9]: 2 | 2) Mouse performance B2 [1, 9]: 1 | 2) Mouse performance B3 [1, 9]: 2 | 3) Timing-sequence response and specificity C [1, 9]: 1 | 3) Timing-sequence response and specificity C1 [1, 9]: 123 | 3) Timing-sequence response and specificity C2 [1, 9]: 1244 | 3) Timing-sequence response and specificity C3 [1, 9]: 2 | 3) Timing-sequence response and specificity C4 [1, 9]: 0.161 | Total single peptide [1, 9]: 3.7 | 1) 95 percentile grouping number A [1, 10]: 0 | 1) 95 percentile grouping number A1 [1, 10]: 0 | 2) Mouse performance B [1, 10]: 1.7 | 2) Mouse performance B1 [1, 10]: 1 | 2) Mouse performance B2 [1, 10]: 1 | 2) Mouse performance B3 [1, 10]: 3 | 3) Timing-sequence response and specificity C [1, 10]: 1 | 3) Timing-sequence response and specificity C1 [1, 10]: 100 | 3) Timing-sequence response and specificity C2 [1, 10]: 1244 | 3) Timing-sequence response and specificity C3 [1, 10]: 3 | 3) Timing-sequence response and specificity C4 [1, 10]: 0.241 | Total single peptide [1, 10]: 3.9 | 1) 95 percentile grouping number A [1, 11]: 1.5 | 1) 95 percentile grouping number A1 [1, 11]: 0.015 | 2) Mouse performance B [1, 11]: 2.4 | 2) Mouse performance B1 [1, 11]: 2 | 2) Mouse performance B2 [1, 11]: 3 | 2) Mouse performance B3 [1, 11]: 3 | 3) Timing-sequence response and specificity C [1, 11]: 1 | 3) Timing-sequence response and specificity C1 [1, 11]: 260 | 3) Timing-sequence response and specificity C2 [1, 11]: 1244 | 3) Timing-sequence response and specificity C3 [1, 11]: 3 | 3) Timing-sequence response and specificity C4 [1, 11]: 0.241 | Total single peptide [1, 11]: 9.8 | 1) 95 percentile grouping number A [1, 12]: 1 | 1) 95 percentile grouping number A1 [1, 12]: 0.02 | 2) Mouse performance B [1, 12]: 2.1 | 2) Mouse performance B1 [1, 12]: 3 | 2) Mouse performance B2 [1, 12]: 2 | 2) Mouse performance B3 [1, 12]: 2 | 3) Timing-sequence response and specificity C [1, 12]: 0 | 3) Timing-sequence response and specificity C1 [1, 12]: 153 | 3) Timing-sequence response and specificity C2 [1, 12]: 1244 | 3) Timing-sequence response and specificity C3 [1, 12]: 0 | 3) Timing-sequence response and specificity C4 [1, 12]: 0.000 | Total single peptide [1, 12]: 7.2 | Neutralizing antibody positive rate (%) [2]: 20%
